According to paper PMC9211397, “High-Throughput Screening Platform To Identify Inhibitors of Protein Synthesis with Potential for the Treatment of Malaria” (Antimicrobial Agents and Chemotherapy, 2022):
Several values for one entry are separate records, joined by “and”; a condition that tells them apart may be missing. Identical values can stand only once. Like-named read-outs stand apart in the source and are kept apart here.

Columns and labels:
[1] = target: human translation (HEK 293F lysate); assay: Human in vitro translation (HsIVT) assay, HEK 293F lysate, luciferase reporter; assay type: biochemical; conditions: weighted mean ± SD of two technical replicates, read-out: IC50 value (μM) HsIVT
Description: (§1) Our P. falciparum in vitro translation (PfIVT) assay is built upon previously established assays ([14], [17]) and is summarized in Fig. 1A. In this assay, successful reconstitution of Plasmodium protein translation is reported via synthesis of a luciferase reporter. For PfIVT, two independent untranslated regions (UTRs), previously shown to promote strong levels of translation ([17]), were introduced upstream and downstream of the luciferase. The 5′ UTR from P. falciparum histidine-rich protein 3 (PfHrp3) ([18]) was introduced upstream of the reporter gene, and the 3′ UTR from P. falciparum histidine-rich protein 2 (PfHrp2) gene ([19]) was introduced downstream. For the reporter construct to support our complementary human IVT assay (HsIVT), the 5′ UTR was replaced with an internal ribosome entry site (IRES) from encephalomyocarditis virus (EMCV) ([20]) and the 3′ UTR was replaced with a poly(A) tail ([21]). […] Finally, a 30-bp poly(A) tail, present within the vector and downstream of the luciferase gene, was inserted to enhance mRNA stability ([21]).
(§2) Translationally active P. falciparum or human embryonic kidney (HEK) 293F lysates were supplemented with accessory, helper, amino acid, and energy regeneration solutions (see Materials and Methods for details). In vitro translation reactions were initiated by the addition of purified mRNA to each reaction well. Using this basic assay format, a number of parameters were assessed and optimized, namely, assay temperature, time, mRNA concentration, and reaction volume (summarized in Fig. S2 in the supplemental material). In addition, we compared the luminescence signal of the CBG firefly luciferase with CBG99, derived from the click beetle […] ([18]).
FreeStyle human embryonic kidney (HEK) 293F cells (Thermo Fisher Scientific) were grown in 500-mL polycarbonate Erlenmeyer vented flasks (Corning) containing FreeStyle 293 expression medium (Life Technologies) upon reaching a density of approximately 2 × 10^6. Cells were then centrifuged at 1,000 × g for 10 min at 4°C, the medium was discarded, and the resulting pellet was washed once in buffer II containing 20 U of human placental RNase inhibitor (Sigma-Aldrich) and cOmplete EDTA-free inhibitor cocktail (Roche) before being centrifuged at 2,800 × g for 10 min. Clarified HEK cell lysate was obtained in the same way as described for P. falciparum lysate.
PfIVT and HsIVT reactions (5 μL final volume) were performed in 384-well plates (Corning) containing 50% lysate from cells (either P. falciparum or HEK 293F), 10% amino acid solution (final concentration of 400 μM for each amino acid in 60 mM KOH; biotechrabbit), 10% energy recovery solution (final assay concentrations of 40 mM HEPES [pH 7.4], 1.5 mM ATP, 0.15 mM GTP, […] creatine phosphate, and 40 U/mL creatine phosphokinase), 10% helper solution (final assay concentrations of 200 μM cystine, 2% polyethylene glycol 3000 [PEG 3000], 1 mM spermidine, 0.5 mM folinic acid, and 15 μM leupeptin), 10% supplemental salt solution (22.5 mM HEPES [pH 7.4], 50 mM potassium acetate, 1 mM magnesium acetate, 1 mM DTT, 1 U/mL human placental RNase inhibitor, 0.1 mM leupeptin), and 10% cbg99 luciferase mRNA (3,000 ng/mL). A master mix solution containing all components was prepared on ice prior to assays, and 5 μL was dispensed into wells using an automated Integra VIAFLO 16-channel 12.5-μL pipette.

CBG99 luciferase = CBG99 luciferase (Pyrophorus plagiophthalamus, UniProt Q7M4K1); assay: Luciferase counterscreen (false-positive counterscreen); assay type: biochemical, click beetle; conditions: weighted mean ± SD of two technical replicates, read-out: IC50 value (μM) Counterscreen
CBG99 luciferase, sequence (Q7M4K1 entry or part of it): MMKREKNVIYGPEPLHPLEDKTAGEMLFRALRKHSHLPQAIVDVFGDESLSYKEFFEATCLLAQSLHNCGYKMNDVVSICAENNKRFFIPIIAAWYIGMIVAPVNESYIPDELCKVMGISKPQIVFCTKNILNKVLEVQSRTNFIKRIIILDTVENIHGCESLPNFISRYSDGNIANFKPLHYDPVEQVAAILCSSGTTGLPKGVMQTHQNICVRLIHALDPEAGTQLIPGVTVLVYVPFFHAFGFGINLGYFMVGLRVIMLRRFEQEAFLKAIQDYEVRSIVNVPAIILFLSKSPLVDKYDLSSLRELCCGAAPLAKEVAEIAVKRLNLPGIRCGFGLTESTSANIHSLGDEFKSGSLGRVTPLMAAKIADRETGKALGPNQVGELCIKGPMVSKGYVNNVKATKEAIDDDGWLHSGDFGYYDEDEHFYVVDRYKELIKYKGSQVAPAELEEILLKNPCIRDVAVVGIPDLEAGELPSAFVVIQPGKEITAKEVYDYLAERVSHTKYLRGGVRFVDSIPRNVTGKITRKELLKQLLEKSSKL
Experimental: Hits identified in our primary assay screen were assessed for their potential to interfere with the cbg99 luciferase reporter. For this counterscreen, the master mix containing all the components required for translation (as described above) was incubated for 210 min at 32°C, resulting in the in vitro translation of cbg99 luciferase. The produced luciferase was then incubated with test compounds for 5 min prior to the addition of luciferase reaction buffer. […] Hits from the primary screen were assessed as luciferase inhibitors in 8-point dose-dependent assays ranging from 30 μM to 13.7 nM (1:3 dilutions). Levels of luciferase inhibition were determined relative to the positive control.

[2] = target: P. falciparum translation (P. falciparum lysate); assay: P. falciparum in vitro translation (PfIVT) assay, lysate-based, luciferase reporter; assay type: biochemical, Plasmodium falciparum; conditions: for IC50: 8-point, weighted mean ± SD of two technical replicates, read-out: IC50 value (μM) PfIVT; for PfIVT inhibition at 30 μM (%): single-point screen
Description: as §1, §2
3D7 parasites were synchronized following two rounds of treatment with D-sorbitol (5%), as previously described ([40]). The hematocrit was reduced from 5% (for standard culture) to 1.5 to 2% and cultures were transferred into HYPERflasks (Corning). Fresh medium was added once or twice daily. […] Harvested red blood cells (infected) were lysed by incubation in 0.1% (wt/vol) saponin on ice for 10 min with gentle agitation. Free parasites were harvested by centrifugation (2,800 × g, 10 min, 4°C) and washed 3 times in wash buffer (WB; 100 mM potassium acetate, 2.5 mM magnesium acetate, 45 mM HEPES [pH 7.4], 250 mM sucrose, 2 mM dithiothreitol, and 15 μM leupeptin) to remove lysed red blood cell debris. The resulting pellet was resuspended in 1 volume of WB supplemented with cOmplete EDTA-free protease inhibitor cocktail (Roche; 1 tablet/20 mL) and human RNase A inhibitor (Sigma; 5 U/mL). Parasite lysis was achieved by nitrogen cavitation using a prechilled 45-mL Parr cell disruption vessel (1,500 lb/in^2, 60 min, 4°C). To clarify the lysate, it was centrifuged (10,000 × g, 15 min, 4°C), and the supernatant was collected, transferred into fresh tubes, and centrifuged (30,000 × g, 15 min, 4°C). As a quality assurance step for each lysate, the RNA content of the resulting supernatant was determined using a NanoDrop spectrophotometer (Shimadzu). Supernatants with RNA levels of >250 ng/μL were aliquoted (100 μL), flash frozen in liquid nitrogen, and stored at −80°C.

SMILES: NC[C@H]1O[C@H](O[C@H]2[C@H](O)[C@@H](O[C@H]3O[C@H](CO)[C@@H](O)[C@H](N)[C@H]3O)[C@H](N)C[C@@H]2N)[C@H](N)C[C@@H]1O [MMV002459]
- IC50 ([1]; Pandemic Box hits): 22 ± 0.3 µM
- IC50 (CBG99 luciferase; Pandemic Box hits): > 30 µM
- IC50 ([2]; Pandemic Box hits): 29 µM and > 30 µM
- PfIVT inhibition at 30 μM (%) ([2]; Pandemic Box): 87.3%

SMILES: Cc1oncc1C(=O)Nc1ccc(C(F)(F)F)cc1 [MMV003291]
- IC50 ([1]; Pandemic Box hits): > 30 µM
- IC50 (CBG99 luciferase; Pandemic Box hits): 0.5 ± 0.08 µM
- IC50 ([2]; Pandemic Box hits): 2 ± 0.07 µM
- PfIVT inhibition at 30 μM (%) ([2]; Pandemic Box): 52.9%

SMILES: CC(C)Nc1ncnc2c1cnn2-c1ccc(Cl)cc1 [MMV108465]
- IC50 ([1]; Pandemic Box hits): 23 ± 0.11 µM
- IC50 (CBG99 luciferase; Pandemic Box hits): 7.6 ± 0.5 µM
- IC50 ([2]; Pandemic Box hits): 17 ± 0.8 µM
- PfIVT inhibition at 30 μM (%) ([2]; Pandemic Box): 62.6%

SMILES: CCOc1ccc(C(=O)NCCc2ccccc2)cc1 [MMV124656]
- IC50 ([1]; Pandemic Box hits): 17 ± 0.16 µM
- IC50 (CBG99 luciferase; Pandemic Box hits): 3.8 ± 0.08 µM
- IC50 ([2]; Pandemic Box hits): 14 ± 0.9 µM
- PfIVT inhibition at 30 μM (%) ([2]; Pandemic Box): 72.6%

SMILES: Clc1cccc(-c2nnc(-c3ccccc3)o2)c1 [MMV141011]
- IC50 ([1]; Pandemic Box hits): > 30 µM
- IC50 (CBG99 luciferase; Pandemic Box hits): 10 ± 0.8 µM
- IC50 ([2]; Pandemic Box hits): > 30 µM
- PfIVT inhibition at 30 μM (%) ([2]; Pandemic Box): 51.8%

SMILES: O=C(O)c1cc(-c2ccc(Br)cc2)nc2ccc(Cl)cc12 [MMV247764]
- IC50 ([1]; Pandemic Box hits): 23 ± 0.2 µM
- IC50 (CBG99 luciferase; Pandemic Box hits): 3.2 ± 0.06 µM
- IC50 ([2]; Pandemic Box hits): 14 ± 0.7 µM
- PfIVT inhibition at 30 μM (%) ([2]; Pandemic Box): 63.2%

SMILES: Cc1ccc(C(=O)Nc2ccc(S(=O)(=O)O)c3cc(S(=O)(=O)O)cc(S(=O)(=O)O)c23)cc1NC(=O)c1cccc(NC(=O)Nc2cccc(C(=O)Nc3cc(C(=O)Nc4ccc(S(=O)(=O)O)c5cc(S(=O)(=O)O)cc(S(=O)(=O)O)c45)ccc3C)c2)c1 [MMV637953]
- IC50 ([1]; Pathogen Box hits): > 30 µM
- IC50 (CBG99 luciferase; Pathogen Box hits): > 30 µM
- IC50 ([2]; Pathogen Box hits): 3.1 ± 0.07 µM
- PfIVT inhibition at 30 μM (%) ([2]; Pathogen Box): 78.7%

SMILES: COc1ccc(C(=N)N)cc1-c1cn(-c2ccc(C(=N)N)cc2)nn1 [MMV675998]
- IC50 ([1]; Pathogen Box hits): 18 ± 0.13 µM
- IC50 (CBG99 luciferase; Pathogen Box hits): > 30 µM
- IC50 ([2]; Pathogen Box hits): 13 ± 0.9 µM
- PfIVT inhibition at 30 μM (%) ([2]; Pathogen Box): 68.9%

SMILES: Cc1c[nH]c(CCNC(=O)c2cc(-c3ccc(Cl)cc3)cs2)n1 [MMV676350]
- IC50 ([1]; Pathogen Box hits): 6.7 ± 0.13 µM
- IC50 (CBG99 luciferase; Pathogen Box hits): > 30 µM
- IC50 ([2]; Pathogen Box hits): 16 ± 0.8 µM
- PfIVT inhibition at 30 μM (%) ([2]; Pathogen Box): 65.1%

SMILES: O=C(Nc1nc(-c2ccccn2)cs1)c1cncn1-c1ccccc1 [MMV676512]
- IC50 ([1]; Pathogen Box hits): 22 ± 0.46 µM
- IC50 (CBG99 luciferase; Pathogen Box hits): > 30 µM
- IC50 ([2]; Pathogen Box hits): > 30 µM
- PfIVT inhibition at 30 μM (%) ([2]; Pathogen Box): 54.2%

SMILES: COc1ccc2nc(C)cc(OCC(=O)Nc3ccccc3OC)c2c1 [MMV687188]
- IC50 ([1]; Pathogen Box hits): > 30 µM
- IC50 (CBG99 luciferase; Pathogen Box hits): > 30 µM
- PfIVT inhibition at 30 μM (%) ([2]; Pathogen Box): 64.9%

SMILES: NC(=O)c1cc(Br)ccc1OCCOc1ccccc1 [MMV687243]
- IC50 ([1]; Pathogen Box hits): 13 ± 0.2 µM
- IC50 (CBG99 luciferase; Pathogen Box hits): 0.9 ± 0.09 µM
- IC50 ([2]; Pathogen Box hits): 2.2 ± 0.08 µM
- PfIVT inhibition at 30 μM (%) ([2]; Pathogen Box): 82.5%
